Measured values published in PubChem BioAssay AID330 (DTP/NCI, 2004).
“And” between values parts separate entries of the source, which are not always exact repeats. Equal values may be shown once. Toxic doses and inconclusive results are not listed.

Tested on: P388 leukemia ip, CD2F1 mice, survival T/C
Assay: NCI In Vivo Anticancer Drug Screen. Data for tumor model P388 Leukemia (intraperitoneal) in CD2F1 (CDF1) mice
Conditions: endpoint: median survival time, higher = longer survival
Procedure, shortened: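 Mice carrying the transplanted tumor received test compound or vehicle. Survival was recorded in each group, and the value is the treated-group measurement divided by that of the vehicle-treated control group.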

[1] = dose: 60.0 mg/kg/injection, schedule: Q01DX005 (ip), vehicle: Klucel (hydroxypropylcellulose) (HPC)
[2] = dose: 50.0 mg/kg/injection, schedule: Q01DX005 (ip), vehicle: saline with Tween-80
[3] = dose: 100.0 mg/kg/injection, schedule: Q01DX005 (ip), vehicle: saline with Tween-80
[4] = dose: 200.0 mg/kg/injection, schedule: Q01DX005 (ip), vehicle: saline with Tween-80
[5] = dose: 50.0 mg/kg/injection, schedule: Q01DX005 (ip), vehicle: Klucel (hydroxypropylcellulose) (HPC)
[6] = dose: 100.0 mg/kg/injection, schedule: Q01DX005 (ip), vehicle: Klucel (hydroxypropylcellulose) (HPC)
[7] = dose: 200.0 mg/kg/injection, schedule: Q01DX005 (ip), vehicle: Klucel (hydroxypropylcellulose) (HPC)
[8] = dose: 50.0 mg/kg/injection, schedule: Q01DX009 (ip), vehicle: saline with Tween-80
[9] = dose: 100.0 mg/kg/injection, schedule: Q01DX009 (ip), vehicle: saline with Tween-80
[10] = dose: 200.0 mg/kg/injection, schedule: Q01DX009 (ip), vehicle: saline with Tween-80
[11] = dose: 120.0 mg/kg/injection, schedule: Q01DX005 (ip), vehicle: Klucel (hydroxypropylcellulose) (HPC)
[12] = dose: 240.0 mg/kg/injection, schedule: Q01DX005 (ip), vehicle: Klucel (hydroxypropylcellulose) (HPC)
[13] = dose: 12.5 mg/kg/injection, schedule: Q01DX009 (ip), vehicle: Klucel (hydroxypropylcellulose) (HPC)
[14] = dose: 25.0 mg/kg/injection, schedule: Q01DX009 (ip), vehicle: Klucel (hydroxypropylcellulose) (HPC)
[15] = dose: 50.0 mg/kg/injection, schedule: Q01DX009 (ip), vehicle: Klucel (hydroxypropylcellulose) (HPC)
[16] = dose: 100.0 mg/kg/injection, schedule: Q01DX009 (ip), vehicle: Klucel (hydroxypropylcellulose) (HPC)
[17] = dose: 200.0 mg/kg/injection, schedule: Q01DX009 (ip), vehicle: Klucel (hydroxypropylcellulose) (HPC)
[18] = dose: 100.0 mg/kg/injection, schedule: Q04DX003 (ip), vehicle: saline with Tween-80
[19] = dose: 12.5 mg/kg/injection, schedule: Q01DX009 (ip), vehicle: saline with Tween-80
[20] = dose: 25.0 mg/kg/injection, schedule: Q01DX009 (ip), vehicle: saline with Tween-80

CSCS(=O)C[C@H](CO)NC(=O)/C=C/c1c(C)[nH]c(=O)[nH]c1=O (some centres not stated)
T/C (dose: 0.08 mg/kg/injection, schedule: Q01DX009 (ip), vehicle: other): 97 % of control
T/C (dose: 0.4 mg/kg/injection, schedule: Q01DX009 (ip), vehicle: water): 94 % of control
T/C (dose: 0.5 mg/kg/injection, schedule: Q01DX009 (ip), vehicle: water): 95 % of control

c1ccc2nc3c(ccc4ccccc43)cc2c1
T/C (dose: 50.0 mg/kg/injection, schedule: Q04DX003 (ip), vehicle: olive oil, sesame oil, peanut oil): 101 % of control
T/C (dose: 91.0 mg/kg/injection, schedule: Q04DX003 (ip), vehicle: saline with Tween-80): 104 % of control
T/C (dose: 100.0 mg/kg/injection, schedule: Q04DX003 (ip), vehicle: olive oil, sesame oil, peanut oil): 103 % of control
T/C (dose: 182.0 mg/kg/injection, schedule: Q04DX003 (ip), vehicle: saline with Tween-80): 101 % of control
T/C (dose: 200.0 mg/kg/injection, schedule: Q04DX003 (ip), vehicle: olive oil, sesame oil, peanut oil): 103 % of control
T/C (dose: 364.0 mg/kg/injection, schedule: Q04DX003 (ip), vehicle: saline with Tween-80): 99 % of control
T/C (dose: 400.0 mg/kg/injection, schedule: Q04DX003 (ip), vehicle: olive oil, sesame oil, peanut oil): 105 % of control

C=CC12CN(C)C3C4COC(CC41)C1(C(=O)Nc4ccccc41)C32 (configuration not stated)
T/C (dose: 1.25 mg/kg/injection, schedule: Q01DX009 (ip), vehicle: saline): 103 % of control
T/C (dose: 2.5 mg/kg/injection, schedule: Q01DX009 (ip), vehicle: saline): 88 % of control
T/C (dose: 5.0 mg/kg/injection, schedule: Q01DX009 (ip), vehicle: saline): 95 % of control
T/C (dose: 7.5 mg/kg/injection, schedule: Q01DX005 (ip), vehicle: Klucel (hydroxypropylcellulose) (HPC)): 98 % of control
T/C (dose: 10.0 mg/kg/injection, schedule: Q01DX009 (ip), vehicle: saline): 106 % of control
T/C (dose: 15.0 mg/kg/injection, schedule: Q01DX005 (ip), vehicle: Klucel (hydroxypropylcellulose) (HPC)): 95 % of control
T/C (dose: 30.0 mg/kg/injection, schedule: Q01DX005 (ip), vehicle: Klucel (hydroxypropylcellulose) (HPC)): 98 % of control
T/C [1]: 102 % of control

O=C(CCl)NC(O)C(Cl)(Cl)Cl (configuration not stated)
T/C [2]: 101 % of control
T/C [3]: 99 % of control
T/C [4]: 103 % of control

Cc1cc(C)c(OC(=O)NCCCl)c(C)c1
T/C [5]: 97 % of control
T/C [6]: 97 % of control
T/C [7]: 96 % of control

CCCC(NC(=O)c1ccccc1)C(=O)O (configuration not stated)
T/C [8]: 100 % of control
T/C [9]: 99 % of control
T/C [10]: 99 % of control

C=C(C)c1nc(N)nc(NCc2ccccc2)n1
T/C [5]: 100 % of control
T/C [6]: 102 % of control
T/C [7]: 109 % of control

CCOC(=O)c1ccc(NC(=O)Nc2cc(OC)ccc2OC)cc1
T/C [1]: 98 % of control
T/C [11]: 99 % of control
T/C [12]: 101 % of control

COc1cc2c(cc1OC)C(c1ccc([N+](=O)[O-])c(C)c1)=NCC2
T/C [5]: 100 % of control
T/C [6]: 100 % of control
T/C [7]: 96 % of control

CCOC(=O)NC(=S)c1cccn1C
T/C [5]: 98 % of control
T/C [6]: 103 % of control
T/C [7]: 105 % of control

O=C(NNc1nc(CCl)cs1)c1ccccc1Cl
T/C [13]: 106 % of control
T/C [14]: 103 % of control and 111 % of control
T/C [15]: 103 % of control and 113 % of control
T/C [16]: 103 % of control and 107 % of control
T/C [17]: 94 % of control

CN(C)c1ccc(/C=N/N=C2\C(=O)Nc3c(Cl)cc(Cl)cc32)cc1
T/C [8]: 95 % of control
T/C [9]: 97 % of control
T/C [10]: 95 % of control

CN1CCC(O)CC1=O (configuration not stated)
T/C [2]: 104 % of control
T/C [3]: 98 % of control
T/C [4]: 101 % of control

Cc1ccc(S(=O)(=O)O/N=C(/CC/C(=N\OS(=O)(=O)c2ccc(C)cc2)c2ccccc2)c2ccccc2)cc1
T/C (dose: 100.0 mg/kg/injection, schedule: Q04DX002 (ip), vehicle: saline with Tween-80): 95 % of control
T/C (dose: 200.0 mg/kg/injection, schedule: Q04DX002 (ip), vehicle: saline with Tween-80): 115 % of control
T/C (dose: 400.0 mg/kg/injection, schedule: Q04DX002 (ip), vehicle: saline with Tween-80): 96 % of control

N=C(N)Sc1cc(Br)c[n+]([O-])c1
T/C [5]: 104 % of control
T/C [6]: 102 % of control
T/C [7]: 100 % of control

CCOC(=O)C1CC1(C(=O)OCC)C(=O)OCC (configuration not stated)
T/C [18]: 96 % of control
T/C (dose: 200.0 mg/kg/injection, schedule: Q04DX003 (ip), vehicle: saline with Tween-80): 97 % of control
T/C (dose: 400.0 mg/kg/injection, schedule: Q04DX003 (ip), vehicle: saline with Tween-80): 92 % of control

NC(CCSCc1ccc(N(CCCl)CCCl)cc1)C(=O)O (configuration not stated)
T/C (dose: 3.13 mg/kg/injection, schedule: Q04DX003 (ip), vehicle: saline with Tween-80): 154 % of control
T/C (dose: 6.25 mg/kg/injection, schedule: Q01DX009 (ip), vehicle: saline with Tween-80): 118 % of control
T/C (dose: 6.25 mg/kg/injection, schedule: Q04DX003 (ip), vehicle: saline with Tween-80): 163 % of control
T/C [19]: 122 % of control
T/C (dose: 12.5 mg/kg/injection, schedule: Q04DX003 (ip), vehicle: saline with Tween-80): 190 % of control
T/C [20]: 163 % of control and 227 % of control
T/C (dose: 25.0 mg/kg/injection, schedule: Q04DX003 (ip), vehicle: saline with Tween-80): 181 % of control
T/C [8]: 95 % of control
T/C (dose: 50.0 mg/kg/injection, schedule: Q04DX003 (ip), vehicle: saline with Tween-80): 263 % of control
T/C [18]: 222 % of control and 231 % of control

CCCCOCN(COCCCC)c1ccc(C)cc1
T/C [19]: 88 % of control
T/C [20]: 104 % of control
T/C [8]: 112 % of control

COc1cc2ccc3c[n+]4ccccc4cc3c2cc1OC
T/C (dose: 6.25 mg/kg/injection, schedule: Q01DX009 (ip), vehicle: Klucel (hydroxypropylcellulose) (HPC)): 103 % of control
T/C [13]: 108 % of control

Cc1ccc(C)c(C2=C/C(=C/c3ccc(N(CCC#N)CCC#N)cc3)C(=O)O2)c1
T/C (dose: 100.0 mg/kg/injection, schedule: Q01DX001 (ip), vehicle: saline with Tween-80): 97 % of control
T/C (dose: 200.0 mg/kg/injection, schedule: Q01DX001 (ip), vehicle: saline with Tween-80): 92 % of control
T/C (dose: 400.0 mg/kg/injection, schedule: Q01DX001 (ip), vehicle: saline with Tween-80): 101 % of control

O=C(O)C(Oc1ccc(Cl)cc1Cl)C(Oc1ccc(Cl)cc1Cl)C(=O)O (configuration not stated)
T/C [1]: 101 % of control
T/C [11]: 101 % of control
T/C [12]: 100 % of control

[Cl][Pt][Cl].[NH-]CCC[N-]CCCC[N-]CCC[NH-]
T/C (dose: 1.56 mg/kg/injection, schedule: Q04DX003 (ip), vehicle: saline): 88 % of control
T/C (dose: 3.13 mg/kg/injection, schedule: Q04DX003 (ip), vehicle: saline): 98 % of control and 94 % of control
T/C (dose: 6.25 mg/kg/injection, schedule: Q04DX003 (ip), vehicle: saline): 107 % of control
T/C (dose: 12.5 mg/kg/injection, schedule: Q04DX003 (ip), vehicle: saline): 99 % of control and 119 % of control and 123 % of control
T/C (dose: 25.0 mg/kg/injection, schedule: Q04DX003 (ip), vehicle: saline): 102 % of control and 122 % of control

S=C(Nc1ccc(Cl)c(Cl)c1)N1c2ccccc2-n2cccc2C1c1cccnc1 (configuration not stated)
T/C [14]: 115 % of control
T/C [15]: 113 % of control
T/C [16]: 113 % of control
T/C [17]: 121 % of control

O=C(O)[C@@H](NC(=O)C(Cl)(Cl)Cl)[C@@H]1CC(Br)=NO1
T/C (dose: 15.0 mg/kg/injection, schedule: Q01DX005 (ip), vehicle: distilled water + Tween-80): 107 % of control and 118 % of control and 122 % of control
T/C (dose: 30.0 mg/kg/injection, schedule: Q01DX005 (ip), vehicle: distilled water + Tween-80): 107 % of control
T/C (dose: 120.0 mg/kg/injection, schedule: Q01DX005 (ip), vehicle: distilled water + Tween-80): 114 % of control and 98 % of control
